Laboratory results taken from PubChem BioAssay AID1963967 (Molecular Pharmacology Branch, DTP, NCI, 2024).

Test system: 855422-203-R-J1-PDC spheroids with HUVEC/MSC, viability
Experiment: Anticancer human tumor 855422-203-R-J1-PDC patient-derived bladder carcinoma cell line growth inhibition [PI3K]
Details: for IC50: curve of first compound; for viability, T/C: stronger effect = lower value
Procedure, shortened: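 Tumor cells were combined with HUVEC and MSCs into spheroids, then dosed with PI3K-inhibitor combinations over half-log ranges capped near clinical Cmax or 10 microM.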
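Also: agents incubated with spheroids for one week before read-out.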
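For viability, T/C in this document: 100% = DMSO vehicle-treated control wells.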

Cn1nccc1Nc1nccc(-c2ccn(C(CO)c3ccc(Cl)c(F)c3)c(=O)c2)n1 (configuration not stated) + CC(Nc1ccc2c(c1)OCCn1cc(N3C(=O)OCC3C(F)F)nc1-2)C(N)=O
IC50 (second compound 0.00316 µM): 7.22 µM
IC50 (second compound 0.01 µM): 6.7 µM
IC50 (second compound 0.0316 µM): 5.55 µM
IC50 (second compound 0.1 µM): 3.78 µM
IC50 (second compound 0.316 µM): 0.796 µM
IC50 (second compound 1 µM): < 0.0316 µM
viability, T/C (second compound 0.00316 µM, first compound 0.0316 µM): 103%
viability, T/C (second compound 0.00316 µM, first compound 0.1 µM): 84.7%
viability, T/C (second compound 0.00316 µM, first compound 0.316 µM): 95.7%
viability, T/C (second compound 0.00316 µM, first compound 1 µM): 89.7%
viability, T/C (second compound 0.00316 µM, first compound 3.16 µM): 80.7%
viability, T/C (second compound 0.00316 µM, first compound 10 µM): 38.3%
viability, T/C (second compound 0.01 µM, first compound 0.0316 µM): 98.4%
viability, T/C (second compound 0.01 µM, first compound 0.1 µM): 96.2%
viability, T/C (second compound 0.01 µM, first compound 0.316 µM): 93.5%
viability, T/C (second compound 0.01 µM, first compound 1 µM): 82.8%
viability, T/C (second compound 0.01 µM, first compound 3.16 µM): 76%
viability, T/C (second compound 0.01 µM, first compound 10 µM): 37%
viability, T/C (second compound 0.0316 µM, first compound 0.0316 µM): 62.7%
viability, T/C (second compound 0.0316 µM, first compound 0.1 µM): 82.1%
viability, T/C (second compound 0.0316 µM, first compound 0.316 µM): 89.7%
viability, T/C (second compound 0.0316 µM, first compound 1 µM): 82.8%
viability, T/C (second compound 0.0316 µM, first compound 3.16 µM): 70.1%
viability, T/C (second compound 0.0316 µM, first compound 10 µM): 29.1%
viability, T/C (second compound 0.1 µM, first compound 0.0316 µM): 72.4%
viability, T/C (second compound 0.1 µM, first compound 0.1 µM): 79.4%
viability, T/C (second compound 0.1 µM, first compound 0.316 µM): 79.1%
viability, T/C (second compound 0.1 µM, first compound 1 µM): 64.7%
viability, T/C (second compound 0.1 µM, first compound 3.16 µM): 56.8%
viability, T/C (second compound 0.1 µM, first compound 10 µM): 20.2%
viability, T/C (second compound 0.316 µM, first compound 0.0316 µM): 53.6%
viability, T/C (second compound 0.316 µM, first compound 0.1 µM): 52.5%
viability, T/C (second compound 0.316 µM, first compound 0.316 µM): 51.8%
viability, T/C (second compound 0.316 µM, first compound 1 µM): 49.5%
viability, T/C (second compound 0.316 µM, first compound 3.16 µM): 29.3%
viability, T/C (second compound 0.316 µM, first compound 10 µM): 10.6%
viability, T/C (second compound 1 µM, first compound 0.0316 µM): 35.9%
viability, T/C (second compound 1 µM, first compound 0.1 µM): 32.2%
viability, T/C (second compound 1 µM, first compound 0.316 µM): 29.9%
viability, T/C (second compound 1 µM, first compound 1 µM): 26.4%
viability, T/C (second compound 1 µM, first compound 3.16 µM): 17.3%
viability, T/C (second compound 1 µM, first compound 10 µM): 8.01%
